Where two headings read alike, the source gives them in different places.
Biological target: T1, F508delCFTR (Homo sapiens, UniProt P13569, DEL508-508)
T1 construct: expressed in transfected cells; host or cells: CFBE41o- human lung derived epithelial cells (CFBE41o-F508delCFTR-HRP), doxycycline-inducible
Assay: Cell Surface Expression-Horse Radish Peroxidase (CSE-HRP) Assay;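 for EC50 (with co-corrector): co-corrector chromenyl benzoic acid corrector at 2 or 3 µM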;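 for Maximum % activity (without co-corrector): % of on-plate positive control chromenyl benzoic acid corrector at 2 or 3 µM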
Format: cell-based
Conditions: for Maximum % activity (with co-corrector) / Emax: maximum at any tested concentration; for Emax: read-out: Maximum % activity (without co-corrector)
Summary of the method: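 Corrector compounds were given as 8-point 3-fold series from 20 or 30 μM, with or without a 2 μM co-corrector, for 18-24 h at 33 °C. Surface HRP was read by luminol luminescence as % of positive control; variable-Hill-slope sigmoidal fitting gave EC50 from triplicate plates.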

[1] = test compound alone, without co-corrector, read-out: EC50 (without co-corrector)
[2] = with co-corrector, read-out: EC50 (with co-corrector)
[3] = test compound with co-corrector
[4] = test compound with co-corrector, read-out: EC50 (with co-corrector)
[5] = test compound without co-corrector
[6] = test compound without co-corrector, read-out: EC50 (without co-corrector)

T1 sequence (P13569 with tags, fused parts or gaps DEL508-508): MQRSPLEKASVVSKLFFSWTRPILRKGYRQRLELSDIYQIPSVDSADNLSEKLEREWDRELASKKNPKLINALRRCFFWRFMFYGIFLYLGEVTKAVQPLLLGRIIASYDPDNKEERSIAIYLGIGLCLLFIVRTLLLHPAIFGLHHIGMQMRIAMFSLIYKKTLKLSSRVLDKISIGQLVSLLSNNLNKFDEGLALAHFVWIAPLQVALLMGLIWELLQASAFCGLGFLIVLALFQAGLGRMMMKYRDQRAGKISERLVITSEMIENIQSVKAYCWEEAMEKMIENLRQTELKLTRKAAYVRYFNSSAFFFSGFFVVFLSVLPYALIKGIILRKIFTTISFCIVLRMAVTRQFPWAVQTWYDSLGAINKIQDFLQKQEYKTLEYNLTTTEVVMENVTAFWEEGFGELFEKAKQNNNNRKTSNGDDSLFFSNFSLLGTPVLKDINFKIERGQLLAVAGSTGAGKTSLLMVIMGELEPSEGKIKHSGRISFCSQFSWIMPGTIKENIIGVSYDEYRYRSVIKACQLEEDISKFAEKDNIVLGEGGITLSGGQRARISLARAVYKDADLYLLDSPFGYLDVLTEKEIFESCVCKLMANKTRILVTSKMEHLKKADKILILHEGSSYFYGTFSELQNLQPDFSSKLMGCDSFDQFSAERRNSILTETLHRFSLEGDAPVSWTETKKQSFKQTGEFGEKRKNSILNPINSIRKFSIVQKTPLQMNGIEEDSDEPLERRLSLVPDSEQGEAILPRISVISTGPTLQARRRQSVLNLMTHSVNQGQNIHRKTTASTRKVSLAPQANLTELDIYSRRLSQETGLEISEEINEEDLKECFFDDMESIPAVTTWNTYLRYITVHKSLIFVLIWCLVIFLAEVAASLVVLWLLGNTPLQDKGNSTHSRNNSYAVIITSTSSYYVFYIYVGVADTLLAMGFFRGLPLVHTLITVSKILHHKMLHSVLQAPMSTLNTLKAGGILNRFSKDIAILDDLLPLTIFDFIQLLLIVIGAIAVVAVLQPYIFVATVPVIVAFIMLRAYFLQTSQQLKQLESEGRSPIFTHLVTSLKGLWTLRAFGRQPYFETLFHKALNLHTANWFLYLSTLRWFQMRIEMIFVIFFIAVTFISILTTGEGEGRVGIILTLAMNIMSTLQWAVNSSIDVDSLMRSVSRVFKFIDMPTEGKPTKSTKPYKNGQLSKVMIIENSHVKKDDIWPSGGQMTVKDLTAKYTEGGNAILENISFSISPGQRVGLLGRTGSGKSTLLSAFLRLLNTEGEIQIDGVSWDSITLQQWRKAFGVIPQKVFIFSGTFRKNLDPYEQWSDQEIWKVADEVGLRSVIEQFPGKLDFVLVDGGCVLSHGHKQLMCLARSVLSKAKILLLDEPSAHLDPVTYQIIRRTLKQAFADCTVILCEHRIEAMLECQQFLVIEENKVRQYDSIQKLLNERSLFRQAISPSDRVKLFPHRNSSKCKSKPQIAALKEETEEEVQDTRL

Row | Structure (SMILES) | EC50 [1] [µM] | Maximum % activity (with co-corrector) (with co-corrector) | EC50 [2] [µM] | Emax (without co-corrector) [%] | Maximum % activity (with co-corrector) [3] | EC50 [4] [µM] | Emax [5] [%] | EC50 [6] [µM]
1 | COc1cc(C2(C(=O)NS(=O)(=O)c3cccc4[nH]ncc34)CC2)c(OCC(C)C)cn1 [II-91] | 3 to 10 | +++ (≥350) | < 3 | > 150 | – | – | – | –
2 | CCCS(=O)(=O)NC(=O)C1(c2cccc(OC)c2)CCOCC1 [Example III-119, 4-(3-methoxyphenyl)-N-(propane-1-sulfonyl)oxane-4-carboxamide] | > 10 | + (<150) | > 10 | < 50 | – | – | – | –
3 | CO[C@H](C)COc1ccc(C)cc1C1(C(=O)NS(=O)(=O)c2cccc3nc(C)ccc23)CC1 [Example I-116, 1-{2-[(2R)-2-methoxypropoxy]-5-methylphenyl}-N-(2-methylquinoline-5-sulfonyl)cyclopropane-1-carboxamide] | < 3 | +++ (≥350) | < 3 | > 150 | – | – | – | –
4 | CCn1nc(C2(C(=O)NS(=O)(=O)c3cccc4ccccc34)CC2)cc1C [II-5] | 3 to 10 | ++ (≥150 and <350) | 3 to 10 | < 50 | – | – | – | –
5 | CC(C)COc1ccc(OC(C)C)c(C2(C(=O)NS(=O)(=O)c3cccc4ncccc34)CC2)n1 [Example GI-86, 1-{6-(2-methylpropoxy)-3-[(propan-2-yl)oxy]pyridin-2-yl}-N-(quinoline-5-sulfonyl)cyclopropane-1-carboxamide] | – | – | – | – | +++ (≥350) | < 3 | > 150 | < 3
6 | Cc1ccc(O[C@@H]2CCOC2)c(C2(C(=O)NS(=O)(=O)c3cccc4ncccc34)CC2)c1 [Example I-122, 1-(5-methyl-2-{[(3R)-oxolan-3-yl]oxy}phenyl)-N-(quinoline-5-sulfonyl)cyclopropane-1-carboxamide] | < 3 | +++ (≥350) | < 3 | > 150 | – | – | – | –
7 | O=C(NS(=O)(=O)c1cccc2ncccc12)C1(c2ccc(C(F)(F)F)nc2N2CCCC2)CC1 [Example GI-15, 1-[2-(pyrrolidin-1-yl)-6-(trifluoromethyl)pyridin-3-yl]-N-(quinoline-5-sulfonyl)cyclopropane-1-carboxamide] | < 3 | +++ (≥350) | < 3 | > 150 | – | – | – | –
8 | Cc1cnc(N2CCCC2)c(C2(C(=O)NS(=O)(=O)c3cccc4[nH]ccc34)CC2)c1 [GII-37, N-(1H-indole-4-sulfonyl)-1-[5-methyl-2-(pyrrolidin-1-yl)pyridin-3-yl]cyclopropane-1-carboxamide] | – | – | – | – | +++ (≥350) | 3 to 10 | > 150 | 3 to 10
9 | CCOc1cccc(OC)c1C1(C(=O)NS(=O)(=O)c2cccc3ncccc23)CC1 [Example I-45, 1-(2-ethoxy-6-methoxyphenyl)-N-(quinoline-5-sulfonyl)cyclopropane-1-carboxamide] | < 3 | +++ (≥350) | < 3 | > 150 | – | – | – | –
10 | CC(C)COc1ncc(C2CCC2)cc1C1(C(=O)NS(=O)(=O)c2cccc3ncccc23)CC1 [Example GI-51, 1-[5-cyclobutyl-2-(2-methylpropoxy)pyridin-3-yl]-N-(quinoline-5-sulfonyl)cyclopropane-1-carboxamide] | – | – | – | – | +++ (≥350) | < 3 | > 150 | < 3
11 | COc1ccc(S(=O)(=O)NC(=O)C2(c3ccc(Cl)cc3Cl)CC2)cc1OC [Example III-25, 1-(2,4-dichlorophenyl)-N-(3,4-dimethoxybenzene-1-sulfonyl)cyclopropane-1-carboxamide] | > 10 | + (<150) | 3 to 10 | < 50 | – | – | – | –

From US10829473B2, “Modulators of the cystic fibrosis transmembrane conductance regulator protein and methods of use” (AbbVie Overseas S.Á.R.L., priority 2017, dated 2020)
